# Source: paper PMC10098953, “Genome Mining Enabled by Biosynthetic Characterization Uncovers a Class of Benzoxazolinate‐Containing Natural Products in Diverse Bacteria” (Angewandte Chemie (International Ed. in English), 2022)
# System: T1, PbzB
# T1 construct: recombinant, His-SUMO-tag, expressed in and purified from E. coli BL21(DE3); homodimer (apo crystal structure)
# Assay: steady-state kinetics of 2-hydroxymethylserine formation (LC-MS)
# Type: biochemical, Pseudomonas chlororaphis subsp. piscium
# Conditions: cofactors PLP and 5,10-methylenetetrahydrofolate (mTHF); potassium phosphate buffer pH 7.5 (stated for the glycine assay; same condition for serine)
row,Km [µM],SMILES
1,69.52 ± 0.03,N[C@@H](CO)C(=O)O [L-serine]
2,603 ± 56.7,N[C@H](CO)C(=O)O [D-serine]
